Experimental data from patent US5602128A, “N-heterocycloalkyl carboxamides as serotonergic agents” (American Home Products Corporation, priority 1994, dated 1997).

Biological target: T1, 5-HT1A serotonin receptor (Rattus norvegicus, UniProt P19327)
T1 construct: following the procedure of Hall et al., J. Neurochem; 44, 1685(1985); from tissue
T1 sequence (P19327 1-422): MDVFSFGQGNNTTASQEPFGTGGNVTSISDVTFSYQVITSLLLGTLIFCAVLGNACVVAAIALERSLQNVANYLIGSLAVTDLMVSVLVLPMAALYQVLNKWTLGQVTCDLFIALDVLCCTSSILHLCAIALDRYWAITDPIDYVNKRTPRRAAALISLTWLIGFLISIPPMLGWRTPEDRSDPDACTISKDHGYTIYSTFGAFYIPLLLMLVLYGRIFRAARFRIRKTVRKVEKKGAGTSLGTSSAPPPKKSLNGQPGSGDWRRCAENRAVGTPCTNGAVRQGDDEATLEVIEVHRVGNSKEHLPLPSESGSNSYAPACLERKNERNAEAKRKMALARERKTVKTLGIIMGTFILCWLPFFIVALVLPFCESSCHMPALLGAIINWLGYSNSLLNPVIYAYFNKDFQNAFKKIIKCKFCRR
Experiment: displacement of [^3 H] 8-OHDPAT from the 5-HT1A serotonin receptor (procedure of Hall et al.)
Details: read-out: 5-HT1A Binding (IC50)
Source text: High affinity for the serotonin 5-HT1A receptor was established by testing the claimed compound's ability to displace [^3 H] 8-OHDPAT (dipropylaminotetralin) from the 5-HT1A serotonin receptor following the procedure of Hall et al., J. Neurochem. 44, 1685(1985). […] The anxiolytic activity of buspirone is believed to be, at least partially, due to its 5-HT1A receptor affinity (Vander Maclen et al., Eur. J. Pharmacol. 1986, 129 (1-2) 133-130).
The result of the standard experimental test procedure described in the preceding paragraph was as follows when applied to the representative compound of this invention: […]

COc1ccccc1N1CCN(CCC(C(=O)NCCN2CCOCC2)c2ccccc2)CC1 (stereo not shown) [Example 1, 4-[4-(2-Methoxy-phenyl)-piperazin-1-yl]-N-(2-morpholin-4-yl-ethyl)-2phenyl-butyramide] showed an IC50 of 95.2 nM.
